# Source: patent publication EP4596561A1, “PHOSPHORUS-CONTAINING COMPOUND, PHARMACEUTICAL COMPOSITION AND USE THEREOF” (Suzhou Genhouse Bio Co., Ltd., priority 2022, dated 2024)
# Where two headings read alike, the source gives them in different places.
# Key:
# [1] = Saturated solubility in FaSSIF solution; assay type: physicochemical; details: room temperature, stirred overnight
# Experimental: Efficacy Experimental Example 9: Test of Saturated Solubility of Samples in FaSSIF Solution
# About 0.21 g of sodium hydroxide, about 2.24 g of sodium dihydrogen phosphate dihydrate, and 3.09 g of sodium chloride were weighed out and dissolved in 500 mL of water, and after dissolution, the pH was adjusted to 6.5 with 1 N sodium hydroxide or 1 N hydrochloric acid.
# 112 mg of FaSSIF solid was weighed out and placed in a 50 mL volumetric flask, and the buffer described above was added for dissolution. The resulting solution was diluted to volume, mixed well, and left to stand at room temperature for 2 h or more.
# Test sample: About 1 mg of the test sample was taken, and 1 mL of FaSSIF solution was added. The mixture was stirred at room temperature overnight and centrifuged, and the supernatant was collected and injected for analysis.
# Reference sample solution: About 1.5 mg of the test sample was precisely weighed out and placed in a 50 mL volumetric flask, and DMF was added for dissolution. The resulting solution was diluted to volume and mixed well.
# The peak of the main component of the reference sample and the peak of the test sample with the same retention time were integrated, and the concentration thereof in the FaSSIF solution was calculated according to the external standard method.
# [2] = Pharmacokinetic test in mice (low dose); assay type: in vivo, Balb/c mice; details: mouse
# Experimental: The compounds of the present disclosure were administered to Balb/c mice by single intravenous injection and oral gavage, and the plasma of the mice at each time point was collected. The concentration of the compounds to be tested in BALB/C plasma was detected using the LC-MS/MS analysis method, and pharmacokinetic analysis was performed.
# The mixture was vortexed, shaken, and ultrasonicated. The remaining volume of 25% sulfobutylether-β-cyclodextrin (sterilized) was added to prepare the final concentration solution or suspension.
# Intravenous injection formulations will be directly administered in animal experiments without filtration. The IV drug preparation vials were disinfected in an infrared sterilization cabinet one day in advance.
# Intravenous injection: Administration was performed via the tail vein. After the needle was inserted, the syringe was slowly […].
# Gavage: Gavage needle and syringe of an appropriate type were selected. The gavage needle was inserted from the root of the tongue into the esophagus until it reached near the cardia of the stomach, then the drug formulation was injected, and the gavage needle was withdrawn. When disposable plastic gavage needles were used, one needle was used for each group.
# At each time point, 60 µL of whole blood was collected from the submandibular vein or tail vein (except for the IV group). The blood sample was added to a pre-cooled anticoagulant blood collection tube containing anticoagulant EDTA-K2 (1 µL, 15% EDTA-K2 solution), placed on wet ice, and centrifuged (3000 g, 4 °C, 10 min) within 1 h. The plasma was immediately collected after centrifugation, transferred to an EP tube, and stored at -90 °C to -60 °C.
# Plasma concentration detection: A developed LC-MS/MS method was used to detect the compounds in plasma.
# The plasma concentration-time data were analyzed using a non-compartmental model in the Phoenix® WinNonlin® (Version 8.2, Pharsight, Mountain View, CA).
# in vivo = details: mouse, plasma, po
# Experimental: After adding 5% DMSO, the mixture was vortexed. 15% HS15 was then added, and the mixture was vortexed again. Finally, a 10% aqueous cyclodextrin solution was added, and the resulting mixture was vortexed to prepare the final concentration solution or suspension.
# NCI-H28 (NF2 wide-type) = assay: Inhibition of cell proliferation (CellTiter-Lumi); assay type: cell-based; details: Homo sapiens, 72 h + another 72 h treatment
# Experimental: (§1) NCI-H2052 (NF2 mutant), NCI-H226 (NF2 mutant), NCI-H2452 (NF2 wide-type), NCI-H28 (NF2 wide-type), and MSTO-211H (NF2 wide-type) cells were cultured in RPMI 1640 complete media.
# (§2) The normally growing cells described above were digested with a trypsin cell-digesting solution, centrifuged, counted, and then plated in a 96-well plate at a density of 1000 cells per well. Administration was performed 24 h after the cell plating. Inhibitors at different concentration gradients were added at 10 µL per well, and three replicate wells were set for each concentration point. The starting concentration was 20 µM and diluted 8 times with a 4-fold gradient. A corresponding negative control group treated with 0.1% DMSO was also set up. After 72 h of drug treatment, the cell culture plate to be tested was taken out of the incubator. The culture medium in the 96-well plate was pipetted, and 190 µL of fresh RPMI 1640 complete medium was added. Another administration was performed, and the cells were cultured for another 72 h. The 96-well plate was taken out and allowed to equilibrate at room temperature for 10 min. […] After shaking for two minutes, the mixture was reacted at room temperature for 10 min. Then, 150 µL of liquid was pipetted from the transparent 96-well plate and transferred to a white 96-well plate for chemiluminescence reading. The background value was subtracted from the value for each well to calculate the cell survival rate. Survival rate (%) = […]. Sample is the chemiluminescence of the drug-treated group, and Vehicle is the […] of the DMSO control group. A sigmoidal dose-survival rate curve was plotted using a non-linear regression model in the GraphPad Prism 7.0 software, and the IC50 values or GI50 values were calculated.
# [3] = test system: NCI-H2452 (NF2 wide-type); assay: Inhibition of cell proliferation (CellTiter-Lumi); assay type: cell-based; details: Homo sapiens, 72 h + another 72 h treatment
# Experimental: as §1, §2
# [4] = test system: YAP-TEAD transcription complex; assay: YAP-TEAD reporter gene assay (dual luciferase, stably transfected 293T cells); assay type: cell-based; details: Homo sapiens, HEK-293T
# Experimental: YAP-TEAD reporter gene The YAP-TEAD reporter gene assay was performed as follows. Firstly, the 8xGTIIC promoter sequence ([…] GTACTGTTGGTAAA) was constructed into a pGL4.20(luc2-Puro) plasmid, and the TK promoter ([…]) unrelated to the hippo pathway was constructed into a pGL4.78(hRlucCP/Hygro) plasmid, thereby constructing stably transfected 293T cells that can stably and continuously express the transcriptional activity of the YAP-TEAD transcription complex. After selection and identification of individual clones, the clones were grown and maintained in a DMEM medium containing 10% fetal bovine serum, penicillin-streptomycin solution, 1 µg/mL puromycin, and 150 µg/mL hygromycin. To perform reporter gene assays with the compounds to be tested, the well-growing cells described above were plated in a 384-well plate at a cell density of 3000 cells per well, with 90 µL per well. The periphery was sealed with an appropriate amount of PBS to prevent evaporation of water from the peripheral wells. Administration was performed on the next day after the cell plating. The test compounds were added at different concentration gradients, and three replicate wells were set for each concentration point. The compound concentration started at 5 µM and was diluted seven times with a 5-fold gradient. A corresponding negative control group treated with DMSO was also set up. After 24 h of drug treatment, the detection reagents were prepared first. The Dual-Lumi™ Firefly luciferase detection reagent and Dual-Lumi™ Renilla luciferase detection buffer were dissolved and brought to room temperature. […]. According to the amount of 100 µL of Dual-Lumi™ Renilla luciferase detection working solution required for the detection of each sample, an appropriate amount of Dual-Lumi™ Renilla luciferase detection working solution was prepared. […]. The cell culture plate was taken out and allowed to equilibrate at room temperature for 10 min (usually no more than 30 min). Then, 100 µL of Dual-Lumi™ Firefly luciferase detection reagent was added to each well of a 96-well plate (25 µL per well for the 384-well plate), and the mixture was mixed well. The mixture was then incubated at room temperature (about 25 °C) for 10 min to stabilize the luminescent signal, and then chemiluminescence was detected using a multimode microplate reader with a chemiluminescence detection function. Subsequently, the detection of Renilla luciferase began. Firstly, 100 µL of Dual-Lumi™ Renilla luciferase detection working solution was added to each well of a […] (25 µL per well for the 384-well plate), and the mixture was mixed well. The mixture was then incubated at room temperature (about 25 °C) for 10 min to stabilize the luminescent signal. Finally, chemiluminescence was detected using a multimode microplate reader with a chemiluminescence detection function. The obtained data were analyzed using GraphPad Prism 7.0 software. A sigmoidal dose-survival rate curve was plotted using a non-linear regression model, and the IC50 values were calculated.
# [5] = 293T reporter cells, 24 h of drug treatment, read-out: IC50
smiles,measurement,setting,value
"CNS(=O)(=O)c1ccc2c(Oc3ccc(C(F)(F)F)cc3)cccc2c1 [Comparative compound B2, reference compound]",FaSSIF(pH = 6.5),[1],16.4 ug/mL
same,bioavailability,"[2]; Balb/c, in vivo",87.5%
same,AUC(0-t),"[2]; Balb/c, in vivo, iv, 2 mg/kg",8.75 µM·h
same,clearance,"[2]; Balb/c, in vivo, iv, 2 mg/kg",6.03 mL/min/kg
same,half-life,"[2]; Balb/c, in vivo, iv, 2 mg/kg",19.6 h
same,AUC(0-t),"[2]; Balb/c, in vivo, po, 10 mg/kg",52.8 µM·h
same,Cmax,"[2]; Balb/c, in vivo, po, 10 mg/kg",4.21 µM
same,half-life,"[2]; Balb/c, in vivo, po, 10 mg/kg",9.3 h
same,AUC(0-t),in vivo; 200 mg/kg,902 µM·h
CCc1ccc(Oc2cccc3cc(P(C)(C)=O)ccc23)cc1 [Example 25],IC50,NCI-H28 (NF2 wide-type),> 20000 nM
same,IC50,[3],> 20000 nM
Cc1cc(Oc2ccc(C(F)(F)F)cc2)c2ccc(P(C)(C)=O)cc2c1 [Example 29],IC50,NCI-H28 (NF2 wide-type),> 1250 nM
same,IC50,[3],> 1250 nM
same,FaSSIF(pH = 6.5),[1],223.4 ug/mL
same,AUC(0-t),"[2]; plasma, mice, IV 2 mg/kg, read-out: AUClast",50.8 µM·h
same,clearance,"[2]; plasma, mice, IV 2 mg/kg, read-out: Cl (converted)",0.4 mL/min/kg
same,half-life,"[2]; plasma, mice, IV 2 mg/kg, read-out: T1/2 (converted)",63.5 h
same,bioavailability,"[2]; plasma, mice, PO 10 mg/kg vs IV 2 mg/kg, read-out: F%",99%
same,AUC(0-t),"[2]; plasma, mice, PO 10 mg/kg, read-out: AUClast",251 µM·h
same,Cmax,"[2]; plasma, mice, PO 10 mg/kg, read-out: Cmax",13.3 µM
same,half-life,"[2]; plasma, mice, PO 10 mg/kg, read-out: T1/2 (converted)",17 h
same,IC50,[4]; [5],4.65 nM
same,AUC(0-t),in vivo; 100 mg/kg,2160 µM·h
Cn1cnc(-c2cc(P(C)(C)=O)cnc2Nc2ccc(S(F)(F)(F)(F)F)cc2)c1 [Example 36],IC50,NCI-H28 (NF2 wide-type),> 20000 nM
same,IC50,[3],> 20000 nM
same,IC50,[4]; [5],39.2 nM
CP(C)(=O)c1cnc(Oc2ccc(C(F)(F)F)cc2)c(-c2cn3c(n2)CCC3)c1 [Example 9],MRT,"[2]; in vivo, mice, IV 2 mg/kg",1.7 h
same,AUC(0-t),"[2]; in vivo, mice, IV 2 mg/kg, read-out: AUClast",5.74 µM·h
same,clearance,"[2]; in vivo, mice, IV 2 mg/kg, read-out: Cl (converted)",13.3 mL/min/kg
same,half-life,"[2]; in vivo, mice, IV 2 mg/kg, read-out: T1/2 (converted)",1.4 h
same,MRT,"[2]; in vivo, mice, PO 10 mg/kg",3.2 h
same,bioavailability,"[2]; in vivo, mice, PO 10 mg/kg vs IV 2 mg/kg, read-out: F%",111%
same,AUC(0-t),"[2]; in vivo, mice, PO 10 mg/kg, read-out: AUClast",30.5 µM·h
same,Cmax,"[2]; in vivo, mice, PO 10 mg/kg, read-out: Cmax",9.37 µM
same,half-life,"[2]; in vivo, mice, PO 10 mg/kg, read-out: T1/2 (converted)",1.9 h
same,IC50,[4]; 24 h,160 nM
Cn1cnc(-c2cc(P(C)(C)=O)ccc2Nc2ccc(Cl)cc2)c1 [Example 32],IC50,[4]; 24 h,78.5 nM
CP(C)(=O)c1ccc(Nc2ccc(C(F)(F)F)cc2)c(-c2cn3c(n2)CCC3)c1 [Example 21],IC50,[4]; 24 h,7.46 nM
CP(C)(=O)c1cnc(Nc2ccc(C(F)(F)F)cc2)c(-c2ccccn2)c1 [Example 33],IC50,[4]; 24 h,19.8 nM
CP(C)(=O)c1ccc2c(Oc3ccc(C4CC4)cc3)cccc2c1 [Example 26],IC50,NCI-H28 (NF2 wide-type),> 5000 nM
same,IC50,[3],> 5000 nM
CP(C)(=O)c1cnc(Nc2ccc(Cl)cc2)c(-c2cn3c(n2)CCC3)c1 [Example 38],IC50,[4]; 24 h,28.7 nM
Cn1cnc(-c2cc(P(C)(C)=O)ccc2Nc2ccc(S(F)(F)(F)(F)F)cc2)c1 [Example 31],IC50,[4]; [5],61.9 nM
